Consider 26 compounds from patent US20230012368A1 (Hoffmann-La Roche Inc., priority 2018, published 2023).

Where a name gives a salt, the structure may show the parent alone.

The subject of one assay is Acinetobacter baumannii ATCC 17978. Description: Antimicrobial susceptibility testing: 90% growth inhibitory concentration (IC90) determination. It is filed as cell-based. The conditions noted are these: 90% growth inhibitory concentration; Acinetobacter baumannii ATCC17978; Iso-Sensitest broth, OD 600 nm over 16h; read-out: ATCC17978 IC90. The method, boiled down:
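Compounds serially twofold diluted (e.g. 50 to 0.097 μM final) in Iso-Sensitest broth, inoculated at ~5×10^(5) CFU/ml, incubated at 35±2° C. OD600 read every 20 minutes over 16h. IC90 taken as concentration inhibiting 90% of growth during logarithmic phase.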
The term IC90 denotes the concentration needed for an effect of 90%. Take `CCc1cc(Nc2nccn3c(-c4ccc(Oc5ccc(C(=O)NCCN)cn5)c(F)c4F)cnc23)ccc1C(=O)NC` [Example 490, N-(2-aminoethyl)-6-[4-[8-[3-ethyl-4-(methylcarbamoyl)anilino]imidazo[1,2-a]pyrazin-3-yl]-2,3-difluoro-phenoxy]pyridine-3-carboxamide; formic acid]: the IC90 is 450 nM.

Staying with this assay, now noted: Acinetobacter baumannii, ATCC17978, 16 h, 90% growth inhibitory concentration; Acinetobacter baumannii ATCC17978; Iso-Sensitest broth, OD 600 nm over 16h; read-out: ATCC17978 IC90.
`COc1ccc(-c2cnc3c(Nc4ccc(C(=O)NC[C@@H](N)CNC(=O)[C@@H]5C[C@@H](O)CN5)c(C)c4)nccn23)c(F)c1F` [Example 468, (2S,4R)-N-[(2R)-2-amino-3-[[4-[[3-(2,3-difluoro-4-methoxy-phenyl)imidazo[1,2-a]pyrazin-8-yl]amino]-2-methyl-benzoyl]amino]propyl]-4-hydroxy-pyrrolidine-2-carboxamide; formic acid]: the concentration for an effect of 90% (IC90) is 480 nM.
Same read-out and setting: the same measure for `COc1ccc(-c2cnc3c(Nc4ccc(C(=O)NC[C@H](N)CNC(=O)[C@@H]5C[C@@H](O)CN5)c(C)c4)nccn23)c(F)c1F` [Example 469, (2S,4R)-N-[(2S)-2-amino-3-[[4-[[3-(2,3-difluoro-4-methoxy-phenyl)imidazo[1,2-a]pyrazin-8-yl]amino]-2-methyl-benzoyl]amino]propyl]-4-hydroxy-pyrrolidine-2-carboxamide; formic acid]: 500 nM; for `Cc1cc(Nc2nccn3c(-c4ccc(OCC#N)c(F)c4F)cnc23)ccc1C(=O)NC[C@H](N)CNC(=O)[C@@H]1C[C@@H](O)CN1` [Example 470, (2S,4R)-N-[(2S)-2-amino-3-[[4-[[3-[4-(cyanomethoxy)-2,3-difluoro-phenyl]imidazo[1,2-a]pyrazin-8-yl]amino]-2-methyl-benzoyl]amino]propyl]-4-hydroxy-pyrrolidine-2-carboxamide; formic acid]: 600 nM.
Still for that read-out and setting: the figure for `CCc1cc(Nc2nccn3c(-c4ccc(Oc5ccccn5)c(F)c4F)cnc23)ccc1C(=O)N(C)C` [Example 471, 4-[[3-[2,3-difluoro-4-(2-pyridyloxy)phenyl]imidazo [1,2-a]pyrazin-8-yl]amino]-2-ethyl-N,N-dimethyl-benzamide] is 660 nM; for `CCc1cc(Nc2nccn3c(-c4ccc(Oc5ccccn5)c(F)c4F)cnc23)ccc1C(=O)NC` [Example 472, 4-[[3-[2,3-difluoro-4-(2-pyridyloxy)phenyl]imidazo [1,2-a]pyrazin-8-yl]amino]-2-ethyl-N-methyl-benzamide] it is 210 nM; for `Cc1cc(Nc2nccn3c(-c4ccc(OCC#N)c(F)c4F)cnc23)ccc1C(=O)NC[C@@H](N)CNC(=O)[C@@H]1C[C@@H](O)CN1` [Example 473, (2S,4R)-N-[(2R)-2-amino-3-[[4-[[3-[4-(cyanomethoxy)-2,3-difluoro-phenyl]imidazo[1,2-a]pyrazin-8-yl]amino]-2-methyl-benzoyl]amino]propyl]-4-hydroxy-pyrrolidine-2-carboxamide; formic acid] it is 210 nM.
Still for that read-out and setting: the same measure for `CCc1cc(Nc2nccn3c(-c4ccc(Oc5ccccn5)c(F)c4F)cnc23)ccc1C(=O)NCC(=O)N1CCN[C@H](CO)C1` [Example 474, 4-[[3-[2,3-difluoro-4-(2-pyridyloxy)phenyl]imidazo [1,2-a]pyrazin-8-yl]amino]-2-ethyl-N-[2-[(3S)-3-(hydroxymethyl)piperazin-1-yl]-2-oxo-ethyl]benzamide]: 910 nM; for `CCc1cc(Nc2nccn3c(-c4ccc(Oc5ccccn5)c(F)c4F)cnc23)ccc1C(=O)NCCC(=O)N1CCN[C@H](CO)C1` [Example 475, 4-[[3-[2,3-difluoro-4-(2-pyridyloxy)phenyl]imidazo [1,2-a]pyrazin-8-yl]amino]-2-ethyl-N-[3-[(3S)-3-(hydroxymethyl)piperazin-1-yl]-3-oxo-propyl]benzamide]: 410 nM.
Take `CCc1cc(Nc2nccn3c(-c4ccc(Oc5ccccn5)c(F)c4F)cnc23)ccc1C(=O)NCCCC(=O)N1CCN[C@H](CO)C1` [Example 476, 4-[[3-[2,3-difluoro-4-(2-pyridyloxy)phenyl]imidazo [1,2-a]pyrazin-8-yl]amino]-2-ethyl-N-[4-[(3S)-3-(hydroxymethyl)piperazin-1-yl]-4-oxo-butyl]benzamide]: the 90% effect concentration (IC90) was 360 nM.
With `CCc1cc(Nc2nccn3c(-c4ccc(Oc5ccccn5)c(F)c4F)cnc23)ccc1C(=O)NCCCCC(=O)N1CCN[C@H](CO)C1` [Example 477, 4-[[3-[2,3-difluoro-4-(2-pyridyloxy)phenyl]imidazo [1,2-a]pyrazin-8-yl]amino]-2-ethyl-N-[5-[(3S)-3-(hydroxymethyl)piperazin-1-yl]-5-oxo-pentyl]benzamide], the 90% effect concentration (IC90) was found to be 330 nM.
Same read-out and setting: the figure for `CCc1cc(Nc2nccn3c(-c4ccc(Oc5ccccn5)c(F)c4F)cnc23)ccc1C(=O)NCCCCCC(=O)N1CCN[C@H](CO)C1` [Example 478, 4-[[3-[2,3-difluoro-4-(2-pyridyloxy)phenyl]imidazo [1,2-a]pyrazin-8-yl]amino]-2-ethyl-N-[6-[(3S)-3-(hydroxymethyl)piperazin-1-yl]-6-oxo-hexyl]benzamide] is 380 nM.
Turning to `COc1ccc(-c2cnc3c(Nc4ccc(C(=O)NCCCN)c(C)c4F)nccn23)c(F)c1F` [Example 479, N-(3-aminopropyl)-4-((3-(2,3-difluoro-4-methoxyphenyl)imidazo[1,2-a]pyrazin-8-yl)amino)-3-fluoro-2-methylbenzamide], the 90% effect concentration (IC90) was 490 nM.
Regarding `CCc1cc(Nc2nccn3c(-c4ccc(OC)c(F)c4F)cnc23)ccc1C(=O)N[C@@H](C)CNC(C)=N` [Example 480, 4-[[3-(2,3-difluoro-4-methoxyphenyl)imidazo[1,2-a]pyrazin-8-yl]amino]-#N!- [(2#S!)-1-(ethanimidoylamino)propan-2-yl]-2-ethylbenzamide;formic acid], the IC90 was determined as 270 nM.
On the same count and under the same terms, the figure for `C#CCCCNC(=O)c1ccc(Nc2nccn3c(-c4ccc(OC)c(F)c4F)cnc23)cc1CC` [Example 481, 4-((3-(2,3-difluoro-4-methoxyphenyl)imidazo[1,2-a]pyrazin-8-yl)amino)-2-ethyl-N-(pent-4-yn-1-yl)benzamide] is 260 nM; for `CCc1cc(Nc2nccn3c(-c4ccc(Oc5nccs5)c(F)c4F)cnc23)ccc1C(=O)NCCCN` [Example 482, #N!-(3-aminopropyl)-4-[[3-[2,3-difluoro-4-(1,3-thiazol-2-yloxy)phenyl]imidazo[1,2-a]pyrazin-8-yl]amino]-2-ethylbenzamide] it is 880 nM; for `CCc1cc(Nc2nccn3c(-c4ccc(OC)c(F)c4F)cnc23)ccc1C(=O)NCC(O)CO` (centres unmarked) [Example 483, 4-((3-(2,3-difluoro-4-methoxyphenyl)imidazo[1,2-a]pyrazin-8-yl)amino)-N-(2,3-dihydroxypropyl)-2-ethylbenzamide] it is 210 nM.
Turning to `CCc1cc(Nc2nccn3c(-c4ccc(OC)c(F)c4F)cnc23)ccc1C(=O)NC1(CNC(=O)[C@@H](N)CCCCN)CC1` [Example 484, N-[1-[[[(2S)-2,6-diaminohexanoyl]amino]meth-yl]cyclopropyl]-4-[[3-(2,3-difluoro-4-methoxy-phenyl)imidazo[1,2-a]pyrazin-8-yl]amino]-2-ethyl-benzamide], the 90% effect concentration (IC90) came to 280 nM.
Still for that read-out and setting: the figure for `COc1ccc(-c2cnc3c(Nc4ccc(C(=O)N[C@H](C)CNC(C)=N)c(C)c4)nccn23)c(F)c1F` [Example 486, 4-[[3-(2,3-difluoro-4-methoxyphenyl)imidazo[1,2-a]pyrazin-8-yl]amino]-#N!- [(2#R!)-1-(ethanimidoylamino)propan-2-yl]-2-methylbenzamide;formic acid] is 68 nM.
Take `COc1ccc(-c2cnc3c(Nc4ccc(C(=O)N[C@@H](C)CNC(C)=N)c(Cl)c4)nccn23)c(F)c1F` [Example 487, 2-chloro-4-[[3-(2,3-difluoro-4-methoxyphenyl)imidazo[1,2-a]pyrazin-8-yl]amino]-#N!- [(2#S!)-1-(ethanimidoylamino)propan-2-yl]benzamide;formic acid]: the IC90 stood at 120 nM.
For `COc1ccc(-c2cnc3c(Nc4ccc(C(=O)N[C@@H](C)CNC(C)=N)c(C)c4)nccn23)c(F)c1F` [Example 488, 4-[[3-(2,3-difluoro-4-methoxyphenyl)imidazo[1,2-a]pyrazin-8-yl]amino]-#N!- [(2#S!)-1-(ethanimidoylamino)propan-2-yl]-2-methylbenzamide;formic acid], the IC90 was 290 nM.
The same measure, in the same setting: the figure for `CCc1cc(Nc2nccn3c(-c4ccc(OC)c(F)c4F)cnc23)ccc1C(=O)N[C@@H](CC)CN` [Example 489, N-[(1S)-1-(aminomethyl)propyl]-4-[[3-(2,3-difluoro-4-methoxy-phenyl)imidazo[1,2-a]pyrazin-8-yl]amino]-2-ethyl-benzamide; formic acid] is 500 nM; for `COc1ccc(-c2cnc3c(Nc4ccc(C(=O)NCCCCCN)c(C)c4)nccn23)c(F)c1F` [Example 491, N-(5-aminopentyl)-4-((3-(2,3-difluoro-4-methoxyphenyl)imidazo[1,2-a]pyrazin-8-yl)amino)-2-methylbenzamide hydrochloride] it is 41 nM.
For the compound `COc1ccc(-c2cnc3c(Nc4ccc(C(=O)NCCCCCN)c(Cl)c4)nccn23)c(F)c1F` [Example 492, N-(5-aminopentyl)-2-chloro-4-((3-(2,3-difluoro-4-methoxyphenyl)imidazo[1,2-a]pyrazin-8-yl)amino)benzamide hydrochloride], the IC90 amounted to 44 nM.
Turning to `COc1ccc(-c2cnc3c(Nc4ccc(C(=O)NCCCCCCN)c(C)c4)nccn23)c(F)c1F` [Example 493, N-(6-aminohexyl)-4-((3-(2,3-difluoro-4-methoxyphenyl)imidazo[1,2-a]pyrazin-8-yl)amino)-2-methylbenzamide hydrochloride], the concentration for an effect of 90% (IC90) was 35 nM.
With `CCc1cc(Nc2nccn3c(-c4ccc(OC)c(F)c4F)cnc23)ccc1C(=O)NCCCCCCN` [Example 494, N-(6-aminohexyl)-4-((3-(2,3-difluoro-4-methoxyphenyl)imidazo[1,2-a]pyrazin-8-yl)amino)-2-ethylbenzamide hydrochloride], the concentration for an effect of 90% (IC90) was 37 nM.
